Laboratory results from ChEMBL document CHEMBL4138121, “Selective photocytotoxicity of anthrols on cancer stem-like cells: The effect of quinone methides or reactive oxygen species” (Eur J Med Chem, 2017).
The source made the active and inactive calls. No cut-off for these calls is given here.

Key:
[1] = tested on: HCT-116; experiment: Photocytotoxicity against human HCT116 cells assessed as growth inhibition irradiated at 350 nm at 4, 24, 48 hrs post compound addition for 5 mins measured after 72 hrs by MTT assay; type: functional, cell-based; conditions: HCT-116, light or radiation study
[2] = Dark toxicity against human HCT116 cells after 72 hrs by MTT assay; type: cell-based, HCT-116
[3] = tested on: HCT-116; experiment: Photocytotoxicity against human HCT116 cells assessed as growth inhibition irradiated at 420 nm at 4, 24, 48 hrs post compound addition for 5 mins measured after 72 hrs by MTT assay; type: functional, cell-based; conditions: HCT-116, light or radiation study
[4] = Dark toxicity against human H460 cells after 72 hrs by MTT assay; type: cell-based, NCI-H460
[5] = tested on: NCI-H460; experiment: Photocytotoxicity against human H460 cells assessed as growth inhibition irradiated at 350 nm at 4, 24, 48 hrs post compound addition for 5 mins measured after 72 hrs by MTT assay; type: functional, cell-based; conditions: NCI-H460, light or radiation study
[6] = tested on: NCI-H460; experiment: Photocytotoxicity against human H460 cells assessed as growth inhibition irradiated at 420 nm at 4, 24, 48 hrs post compound addition for 5 mins measured after 72 hrs by MTT assay; type: functional, cell-based; conditions: NCI-H460, light or radiation study
[7] = Dark toxicity against human MCF7 cells after 72 hrs by MTT assay; type: cell-based
[8] = tested on: MCF7; experiment: Photocytotoxicity against human MCF7 cells assessed as growth inhibition irradiated at 350 nm at 4, 24, 48 hrs post compound addition for 5 mins measured after 72 hrs by MTT assay; type: functional, cell-based; conditions: MCF7, light or radiation study
[9] = tested on: MCF7; experiment: Photocytotoxicity against human MCF7 cells assessed as growth inhibition irradiated at 420 nm at 4, 24, 48 hrs post compound addition for 5 mins measured after 72 hrs by MTT assay; type: functional, cell-based; conditions: MCF7, light or radiation study
[10] = Dark toxicity against human SUM159 cells after 72 hrs by MTT assay; type: cell-based, SUM-159-PT
[11] = tested on: HMLE; experiment: Anticlonogenic activity against HMLE-shEcad cells at 0.5 to 1 uM irradiated at 350 nm at 4 hrs post compound addition for 5 mins for 5 mins measured after 24 hrs by crystal violet staining-based assay; type: functional, cell-based; conditions: Homo sapiens
[12] = tested on: SUM-159-PT; experiment: Photocytotoxicity against human SUM159 cells assessed as growth inhibition irradiated at 420 nm at 4, 24, 48 hrs post compound addition for 5 mins measured after 72 hrs by MTT assay; type: functional, cell-based; conditions: light or radiation study
[13] = Dark toxicity against HMLE-shGFP cells after 72 hrs by MTT assay; type: cell-based; conditions: human
[14] = Photocytotoxicity against HMLE-shGFP cells assessed as growth inhibition irradiated at 350 nm at 4, 24, 48 hrs post compound addition for 5 mins measured after 72 hrs by MTT assay; type: cell-based; conditions: Homo sapiens, light or radiation study
[15] = Photocytotoxicity against HMLE-shGFP cells assessed as growth inhibition irradiated at 420 nm at 4, 24, 48 hrs post compound addition for 5 mins measured after 72 hrs by MTT assay; type: cell-based; conditions: Homo sapiens, light or radiation study
[16] = Dark toxicity against HMLE-shEcad cells after 72 hrs by MTT assay; type: cell-based; conditions: human
[17] = Photocytotoxicity against HMLE-shEcad cells assessed as growth inhibition irradiated at 350 nm at 4, 24, 48 hrs post compound addition for 5 mins measured after 72 hrs by MTT assay; type: functional, cell-based; conditions: Homo sapiens, light or radiation study
[18] = Photocytotoxicity against HMLE-shEcad cells assessed as growth inhibition irradiated at 420 nm at 4, 24, 48 hrs post compound addition for 5 mins measured after 72 hrs by MTT assay; type: functional, cell-based; conditions: Homo sapiens, light or radiation study
[19] = Cell cycle arrest in HMLE-shEcad cells assessed as delay in G1/S phase at 1 to 10 uM after 24 to 48 hrs in absence of irradiation by propidium iodide staining-based flow cytometric method; conditions: human
[20] = tested on: HMLE; experiment: Cell cycle arrest in HMLE-shEcad cells assessed as accumulation at S phase at 1 to 10 uM irradiated at 420 nm at 4 hrs post compound addition for 5 mins measured after 24 to 48 hrs by propidium iodide staining-based flow cytometric method; type: functional; conditions: Homo sapiens
[21] = tested on: HMLE; experiment: Cell cycle arrest in HMLE-shEcad cells assessed as accumulation at G2/M phase at 1 to 10 uM irradiated at 420 nm at 4 hrs post compound addition for 5 mins measured after 24 to 48 hrs by propidium iodide staining-based flow cytometric method; type: functional; conditions: Homo sapiens
[22] = Cell cycle arrest in HMLE-shGFP cells assessed as accumulation at S phase at 1 to 10 uM irradiated at 420 nm at 4 hrs post compound addition for 5 mins measured after 24 to 48 hrs by propidium iodide staining-based flow cytometric method; conditions: human
[23] = Cell cycle arrest in HMLE-shGFP cells assessed as accumulation at G2/M phase at 1 to 10 uM irradiated at 420 nm at 4 hrs post compound addition for 5 mins measured after 24 to 48 hrs by propidium iodide staining-based flow cytometric method; conditions: human
[24] = Cytotoxicity against HMLE-shGFP cells at 10 uM irradiated at 420 nm at 4 hrs post compound addition for 5 mins measured after 48 hrs by propidium iodide staining-based flow cytometric method; type: cell-based; conditions: human
[25] = tested on: HMLE; experiment: Cytotoxicity against HMLE-shEcad cells at 10 uM irradiated at 420 nm at 4 hrs post compound addition for 5 mins measured after 48 hrs by propidium iodide staining-based flow cytometric method; type: functional, cell-based; conditions: Homo sapiens
[26] = tested on: MCF7; experiment: Cell cycle arrest in human MCF7 cells in presence of irradiation; type: functional, cell-based
[27] = tested on: SUM-159-PT; experiment: Cell cycle arrest in human SUM159 cells in presence of irradiation; type: functional, cell-based
[28] = tested on: SUM-159-PT; experiment: Induction of reactive oxygen species generation in human SUM159 cells at 1 to 10 uM irradiated at 420 nm for 5 mins measured after 2 hrs by H2DCF-DA dye-based FACS analysis; type: functional, cell-based
[29] = tested on: MCF7; experiment: Induction of reactive oxygen species generation in human MCF7 cells at 1 to 10 uM irradiated at 420 nm for 5 mins measured after 2 hrs by H2DCF-DA dye-based FACS analysis; type: functional, cell-based
[30] = Induction of reactive oxygen species generation in HMLE-shGFP cells at 1 to 10 uM irradiated at 420 nm for 5 mins measured after 2 hrs by H2DCF-DA dye-based FACS analysis relative to non-irradiated cells; type: cell-based; conditions: human
[31] = Decrease in reactive oxygen species generation in HMLE-shEcad cells at 1 uM in absence of irradiation measured after 2 hrs by H2DCF-DA dye-based FACS analysis; type: ADME, cell-based; conditions: human
[32] = Drug uptake in cytoplasm of HMLE-shGFP cells at 5 uM irradiated at 420 nm for 5 mins measured after 2 to 3 hrs by confocal microscopic method; type: ADME, subcellular; conditions: human
[33] = Drug uptake in nucleus of HMLE-shGFP cells at 5 uM irradiated at 420 nm for 5 mins measured after 2 to 3 hrs by confocal microscopic method; type: ADME, subcellular; conditions: human
[34] = Drug uptake in cytoplasm of HMLE-shEcad cells at 10 uM in absence of irradiation measured after 2 to 3 hrs by confocal microscopic method; type: ADME, subcellular; conditions: human
[35] = Drug uptake in nucleus of HMLE-shEcad cells at 10 uM in absence of irradiation measured after 2 to 3 hrs by confocal microscopic method; type: ADME, subcellular; conditions: human
[36] = Drug uptake in plasma membranes of HMLE-shGFP cells at 5 uM irradiated at 420 nm for 5 mins measured after 2 to 3 hrs by confocal microscopic method; type: ADME, cell membranes, Plasma membrane; conditions: human
[37] = Drug uptake in intracellular membranes of HMLE-shGFP cells at 5 uM irradiated at 420 nm for 5 mins measured after 2 to 3 hrs by confocal microscopic method; type: ADME, cell membranes, Intracellular membrane; conditions: human
[38] = Induction of cell damage in HMLE-shGFP cells assessed as cell swelling at 5 uM irradiated at 420 nm for 5 mins measured after 2 to 3 hrs by confocal microscopic method; type: cell-based; conditions: human
[39] = Induction of cell damage in HMLE-shGFP cells assessed as degradation of internal structure at 5 uM irradiated at 420 nm for 5 mins measured after 2 to 3 hrs by confocal microscopic method; type: cell-based; conditions: human
[40] = Induction of cell damage in HMLE-shGFP cells assessed as membrane blebbing at 5 uM irradiated at 420 nm for 5 mins measured after 2 to 3 hrs by confocal microscopic method; type: cell-based; conditions: human

With Oc1ccc2cc3ccccc3cc2c1 the IC50 [1] was 9 µM, the IC50 at 72 h [2] was 27 µM and the IC50 [3] was 2 µM. It also gave an IC50 at 72 h [4] of 23 µM, an IC50 [5] of 12 µM and an IC50 [6] of 2 µM. For the same molecule, the IC50 at 72 h [7] was 28 µM, the IC50 [8] was 2 µM and the IC50 [9] was 1 µM. For the same molecule, the IC50 at 72 h [10] was 18 µM, the Activity [11] was “Active” and the IC50 [12] was 2 µM. It also gave an IC50 at 72 h [13] of 27 µM, an IC50 [14] of 2 µM and an IC50 [15] of 2 µM. For the same molecule, the IC50 at 72 h [16] was 25 µM, the IC50 [17] was 2 µM and the IC50 [18] was 1 µM. The Activity [19] was “Toxic”, the Activity [20] was “Active” and the Activity [21] was “Active”. For the same molecule, the Activity [22] was “Toxic”, the Activity [23] was “Toxic” and the Activity [24] was “Toxic”. For the same molecule, the Activity [25] was “Active”, the Activity [26] was “inactive” and the Activity [27] was “inactive”. For the same molecule, the Activity [28] was “Active”, the Activity [29] was “Active” and the “fold change (FC)” value [30] was 2. For the same molecule, the Activity [31] was “Toxic”, the Drug uptake [32] was “Active” and the Drug uptake [33] was “Not Active”. The Drug uptake [34] was “Active”, the Drug uptake [35] was “Not Active” and the Drug uptake [36] was “Active”. The Drug uptake [37] was “Active”, the Activity [38] was “Toxic” and the Activity [39] was “Toxic”. For the same molecule, the Activity [40] was “Toxic”.
